# Experimental data taken from ChEMBL document CHEMBL5120849, “Identification of novel and potent PROTACs targeting FAK for non-small cell lung cancer: Design, synthesis, and biological study” (Eur J Med Chem, 2022).
# Legend:
# A549 [1] = experiment: Antiinvasive activity in human A549 cells assessed as inhibition of cell invasion by measuring reduction in cell count incubated for 72 hrs by crystal violet staining based transwell assay; assay type: functional; conditions: dose 0.2-1.8 µM, DDE = dose-dependent effect
# A549 [2] = experiment: cells; conditions: Homo sapiens, A549, 72 h
# [3] = Stability in pooled human plasma assessed as parent compound remaining at 2 uM measured after 60 mins by LC-MS/MS analysis (reference value: 100%); assay type: ADME, cell-free; conditions: read-out: Stability
# [4] = Stability in pooled human plasma assessed as parent compound remaining at 2 uM measured after 30 mins by LC-MS/MS analysis (reference value: 100%); assay type: ADME, cell-free; conditions: read-out: Stability
# [5] = Apparent permeability across apical to basolateral side in human Caco-2 cells at 2 uM incubated for 2 hrs by LC-MS/MS analysis; assay type: ADME, cell-based
# A549 [6] = experiment: Inhibition of cell migration in human A549 cells assessed as wound recovery at 0.2 uM measured after 72 hrs by inverted microscopic analysis (reference value: 53.4 %); assay type: functional; set-up: scale not given: the % may be the effect or the level left
# [7] = Stability in pooled human plasma assessed as half life at 2 uM measured upto 120 mins by LC-MS/MS analysis; assay type: ADME, cell-free
# [8] = Apparent permeability across basolateral to apical side in human Caco-2 cells at 2 uM incubated for 2 hrs by LC-MS/MS analysis; assay type: ADME, cell-based
# A549 [9] = experiment: Inhibition of cell migration in human A549 cells assessed as wound recovery at 0.6 uM measured after 24 hrs by inverted microscopic analysis (reference value: 28.2 %); assay type: functional; set-up: scale not given: the % may be the effect or the level left
# A549 [10] = experiment: Inhibition of cell migration in human A549 cells assessed as wound recovery at 1.8 uM measured after 24 hrs by inverted microscopic analysis (reference value: 28.2 %); assay type: functional; set-up: scale not given: the % may be the effect or the level left
# A549 [11] = experiment: Inhibition of cell migration in human A549 cells assessed as wound recovery at 0.2 uM measured after 24 hrs by inverted microscopic analysis (reference value: 28.2 %); assay type: functional; set-up: scale not given: the % may be the effect or the level left
# [12] = Stability in pooled human plasma assessed as parent compound remaining at 2 uM measured after 10 mins by LC-MS/MS analysis (reference value: 100%); assay type: ADME, cell-free; conditions: read-out: Stability
# A549 [13] = experiment: Inhibition of cell migration in human A549 cells assessed as wound recovery at 0.6 uM measured after 72 hrs by inverted microscopic analysis (reference value: 53.4 %); assay type: functional; set-up: scale not given: the % may be the effect or the level left
# A549 [14] = experiment: Inhibition of cell migration in human A549 cells assessed as wound recovery at 1.8 uM measured after 72 hrs by inverted microscopic analysis (reference value: 53.4 %); assay type: functional; set-up: scale not given: the % may be the effect or the level left
# [15] = Stability in pooled human plasma assessed as parent compound remaining at 2 uM measured after 120 mins by LC-MS/MS analysis (reference value: 100%); assay type: ADME, cell-free; conditions: read-out: Stability
structure (smiles),measurement,setting,value
CNC(=O)c1ccccc1Nc1nc(Nc2ccc(N3CCN(CCCCC(=O)Nc4cccc5c4C(=O)N(C4CCC(=O)NC4=O)C5=O)CC3)cc2OC)ncc1Cl (configuration not stated),Activity,A549 [1],Dde
same,IC50,A549 [2],0.14 µM
same,"remaining at 1 h, 2 µM",[3],98.3%
same,"remaining at 0.5 h, 2 µM",[4],96.6%
same,"Papp A→B at 2 h, 2 µM",[5],14 nm/s
same,Activity,A549 [6],42.4%
same,half-life at 2 µM,[7],> 4.82 h
same,"Papp B→A at 2 h, 2 µM",[8],47 nm/s
same,Activity,A549 [9],11.1%
same,Activity,A549 [10],3.6%
same,Activity,A549 [11],13.7%
same,"remaining at 10 min, 2 µM",[12],112%
same,Activity,A549 [13],33.3%
same,Activity,A549 [14],21.7%
same,"remaining at 2 h, 2 µM",[15],86.2%
CNC(=O)c1ccccc1Nc1nc(Nc2ccc(N3CCOCC3)cc2OC)ncc1Cl,Activity,A549 [1],Dde
same,IC50,A549 [2],1.31 µM
CNC(=O)c1ccccc1Nc1nc(Nc2ccc(N3CCN(CCCCCCC(=O)Nc4cccc5c4C(=O)N(C4CCC(=O)NC4=O)C5=O)CC3)cc2OC)ncc1Cl (configuration not stated),IC50,A549 [2],0.79 µM
CNC(=O)c1ccccc1Nc1nc(Nc2ccc(N3CCN(CCCCCCCCCC(=O)Nc4cccc5c4C(=O)N(C4CCC(=O)NC4=O)C5=O)CC3)cc2OC)ncc1Cl (configuration not stated),IC50,A549 [2],3.58 µM
CNC(=O)c1ccccc1Nc1nc(Nc2ccc(N3CCN(CCCCC(=O)Nc4ccc5c(c4)C(=O)N(C4CCC(=O)NC4=O)C5=O)CC3)cc2OC)ncc1Cl (configuration not stated),IC50,A549 [2],3.42 µM
CNC(=O)c1ccccc1Nc1nc(Nc2ccc(N3CCN(CCCCCCCC(=O)NCCNc4cccc5c4C(=O)N(C4CCC(=O)NC4=O)C5=O)CC3)cc2OC)ncc1Cl (configuration not stated),IC50,A549 [2],0.33 µM
CNC(=O)c1ccccc1Nc1nc(Nc2ccc(N3CCN(CCCCCCCCNC(=O)CNc4cccc5c4C(=O)N(C4CCC(=O)NC4=O)C5=O)CC3)cc2OC)ncc1Cl (configuration not stated),IC50,A549 [2],2.25 µM
CNC(=O)c1ccccc1Nc1nc(Nc2ccc(N3CCN(CCCCC(=O)Nc4cccc5c4CN(C4CCC(=O)NC4=O)C5=O)CC3)cc2OC)ncc1Cl (configuration not stated),IC50,A549 [2],0.27 µM
CNC(=O)c1ccccc1Nc1nc(Nc2ccc(N3CCN(CCCCCC(=O)NCCNc4cccc5c4C(=O)N(C4CCC(=O)NC4=O)C5=O)CC3)cc2OC)ncc1Cl (configuration not stated),IC50,A549 [2],0.31 µM
CNC(=O)c1ccccc1Nc1nc(Nc2ccc(N3CCN(CCCCC(=O)NCCNc4cccc5c4C(=O)N(C4CCC(=O)NC4=O)C5=O)CC3)cc2OC)ncc1Cl (configuration not stated),IC50,A549 [2],4.01 µM
CNC(=O)c1ccccc1Nc1nc(Nc2ccc(N3CCN(CCCCCC(=O)Nc4cccc5c4C(=O)N(C4CCC(=O)NC4=O)C5=O)CC3)cc2OC)ncc1Cl (configuration not stated),IC50,A549 [2],0.26 µM
CNC(=O)c1ccccc1Nc1nc(Nc2ccc(N3CCN(CCCCCCCCC(=O)Nc4cccc5c4C(=O)N(C4CCC(=O)NC4=O)C5=O)CC3)cc2OC)ncc1Cl (configuration not stated),IC50,A549 [2],1.35 µM
